Data reported in patent publication US10434199B2, “Picolinate cross-bridged cyclams, chelates with metallic cations and use thereof” (UNIVERSITÉ DE BRETAGNE OCCIDENTALE, priority 2013, dated 2019).

Experiments:
Assay type in all cases: physicochemical
[1] = Potentiometric titrations: stability constants and pM of Zn^2+ complexes
Method: Equipment and work conditions. The potentiometric setup has been described in Roger, M. et al. Inorg. Chem. 2013, 52, 5246-5259. The titrant was a KOH solution prepared at ca. 0.1 M from a commercial ampoule of analytical grade, and its accurate concentration was obtained by application of the Gran's method upon titration of a standard HNO3 solution (Rossotti, F. J. and Rossotti, H. J. J. Chem. Educ. 1965, 42, 375-378). Ligand solutions were prepared at about 2.0×10^−3 M, and the Cu^2+ and Zn^2+ solutions at ca. 0.05 M from analytical grade nitrate salts and standardized by complexometric titrations with H4edta (ethylenediaminetetraacetic acid). Sample solutions for titration contained approximately 0.04 mmol of ligand in a volume of 30 mL where the ionic strength was kept at 0.10 M using KNO3 as background electrolyte. Metal cations were added at 0.9 equiv. of the ligand amount in complexation titrations. Batch titrations were prepared in a similar way but with each titration point corresponding to 1/10 of the amount of a conventional titration sample. Batch titration points were incubated in tightly closed vials at 25° C. until potential measurements attained complete stability, which happened within a week.
Measurements. All measurements were carried out at 25.0±0.1° C. under inert atmosphere. The electromotive force of the sample solutions was measured after calibration of the electrodes by titration of a standard HNO3 solution at 2.0×10^−3 M in the work conditions. The [H^+] of the solutions was determined by measurement of the electromotive force of the cell, E=E^o′+Q log [H^+]+Ej. The term pH is defined as −log [H^+]. E^o′ and Q were determined from the acid region of the calibration curves. Deviations from the Nernst law at very low pH (pH<2.5) were corrected with the VLpH software (Calibration software from the maker of Hyperquad available for free at http://www.hyperquad.co.uk/), which performs a [H^+] correction based on a very low pH calibration procedure. The liquid-junction potential, Ej, was otherwise found to be negligible for pH >2.5 under the experimental conditions used. […] Each titration consisted of 80-100 equilibrium points in the range of pH 2.5-11.5 (or 1.5-11.5 for Cu^2+ complexations), and at least two replicate titrations were performed for each particular system.
Calculations. The potentiometric data were refined with the Hyperquad software, and speciation diagrams were plotted using the HySS software. The overall equilibrium constants βi^H and βMmHhL1 are defined by βMmHhL1=[MmHhLl]/[M]^m[H]^h[L]^l (βi^H=[HhLl]/[H]^h[L]^l and βML-1L=βML(OH)×Kw). Differences in log units between the values of protonated (or hydrolysed) and non-protonated constants provide the stepwise (log K) reaction constants (being KMmHhL1=[MmHhLl]/[MmHh-1Ll][H]). The errors quoted are the standard deviations calculated by the fitting program from all the experimental data for each system.
The stability constants of the complexes formed by Hcb-te1pa with Cu^2+ and Zn^2+ were determined by potentiometric titrations in aqueous solution at 25.0° C. in 0.10 M KNO3 ionic strength (Table 2).
The equilibrium of formation of the copper(II) and especially the zinc(II) complexes is slow in the acidic pH range. In the case of Cu^2+, the complexation is almost complete from low pH but relatively slow up to pH=4. To overcome this double problem, conventional titrations were performed at pH values below 2 in order to observe a significant percentage of free metal ion (at least 18%) and thus allow for determination of the corresponding stability constant, while giving the solution enough time to reach equilibrium prior to the start of the titration. During titrations, each experimental point included a supplementary equilibration time in order to yield fully stabilized measurements. […]

[2] = Cyclic voltammetry of the copper(II) complexes; conditions: overview table
Method: Cyclic voltammograms were measured using Autolab equipment at room temperature. All measurements were made using a three-electrode system: a glassy-carbon electrode as a working electrode, a platinum wire as a counter-electrode, and a saturated calomel reference electrode. All electrochemical experiments were performed in ca. 1 mM aqueous solutions of preformed complex under a N2 atmosphere containing 0.1 M NaClO4 as the supporting electrolyte. From the initial potential of the analysis (0 V), the voltage was ramped to −1.3 V, then to 0.2 V, and back to 0 V at a scan rate of 100 mV/s. All potentials are expressed relative to the saturated calomel electrode (SCE) except otherwise noted.
One of the explanations for the dissociation of copper(II) complexes of macrocyclic ligands in biological media is the metal reduction to copper(I) followed by the demetallation of the complex. It is thus important to ensure the electrochemical inertness as well as the reversibility of the redox system. To determine the redox behavior of the copper complex of Hcb-te1pa, cyclic voltammetry experiments were performed in aqueous solution at pH values of 2.3 and 6.8. The experiments were carried out with a glassy-carbon working electrode in solutions containing 0.1 M NaClO4 as supporting electrolyte.

[3] = Copper(II) complex formation kinetics (UV-vis, buffered aqueous solutions); conditions: for time to completion (>99%) of copper(II) complex formation: 25° C.
Method: Complex Formation. The formation of the copper(II) complex of Hcb-te1pa was studied in buffered aqueous solutions at 25° C. The increasing intensity of the complex d-d transition band in the visible range (600 nm) was followed at pH=5.0 (0.2 M potassium acetate buffer) and pH=7.4 (0.2 M HEPES buffer), with [Cu^2+]=[Hcb-te1pa]=0.8 mM. Additionally, complex formation was also studied at pH=3.0 (0.2 M (K,H)Cl) under pseudo-first order conditions, by following the increasing charge transfer band in the UV range (at 310 nm) at [Cu^2+]=10×[Hcb-te1pa]=2 mM.
The copper(II) complex formation with Hcb-te1pa was spectroscopically monitored in different buffered solutions from acidic to neutral pH. […] The reaction becomes progressively slower because of the increase of the acidity of the reaction media, enabling a kinetic study under pseudo-first order conditions using conventional UV-vis spectroscopic methods. In this work such kinetic study was performed at pH=3, which is at the lower limit of the pH range in which the copper(II) complexation is approximately complete under equilibrium in equimolar metal-to-ligand conditions.

With `O=C(O)c1cccc(CN2CCCN3CCNCCCN(CC3)CC2)n1` [Hcb-te1pa, 6-(1,4,8,11-tetraazabicyclo[6.6.2]hexadecan-4-ylmethyl)picolinic acid] the “log KMLHh, ZnLOH + H^+ ⇌ ZnL” value ([1]; 25.0° C., I = 0.10M KNO3) was 11.33 log units, the “log KMLHh, Zn^2+ + L ⇌ ZnL” value ([1]; 25.0° C., I = 0.10M KNO3) was 18.83 log units and the “log βMLHh, Zn^2+ + L ⇌ ZnL” value ([1]; 25.0° C., I = 0.10M KNO3) was 18.83(6) log units. The “log βMLHh, Zn^2+ + L ⇌ ZnLOH + H^+” value ([1]; 25.0° C., I = 0.10M KNO3) was 7.50(7) log units, the “c) inertness vs Zn: log K[ZnL]” value ([1]; overview table) was 18.83 and the “c) inertness vs Zn: pZn” value ([1]; overview table, calculated pM) was 8.50. For the same compound, the “Calculated pM, Zn^2+” value ([1]; pH = 7.4, 100% excess of ligand, [M^2+]tot = 1 × 10^−5 M) was 8.50, the “e) stability upon reduction, Cu(II) -> Cu (I): reduction potential” value [2] was −0.696 V and the “e) stability upon reduction, Cu(II) -> Cu (I): reversibility” value [2] was “reversible”. For the same compound, the “a) metallation kinetics: time required for complete (>99%) Cu complexation” value ([3]; overview table) was 3 min, the “time to quantitative (>99%) formation of copper(II) complex” value ([3]; pH=3, pseudo-first order, excess of 10 equivalents of metal cation) was at most 10 min and the “time to completion (>99%) of copper(II) complex formation” value ([3]; pH=5, equimolar metal-to-ligand ratio) was at most 3 min. The “time to completion (>99%) of copper(II) complex formation” value ([3]; physiological pH (7.4), equimolar metal-to-ligand ratio) was “within a few seconds” and the copper chelated immediately ([3]; remaining copper chelated within a few seconds) was “more than 90%”.
